Experimental findings from PubChem BioAssay (NCI) are described below.

Each structure is given as a SMILES string.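 Cells were grown in 96-well plates and exposed to each compound for 48 hours at five concentrations; endpoints were interpolated linearly between bracketing concentrations, or set to the highest concentration if not reached. The concentration for full growth arrest is given as TGI.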

Among the test systems are OVCAR-5 ovarian; NCI-H460 lung; CCRF-CEM leukemia; UO-31 renal; K-562 leukemia; SK-MEL-2 melanoma; MDA-MB-231 breast; MALME-3M melanoma; MDA-MB-435; HOP-62 NSCLC; A498 renal.
What all share (test): growth of human tumour cells (NCI), 48 h

As to `COC(CNC(=O)C(C)NC(=O)CCc1ccccc1)OC` (centres undefined), the TGI in the experiment with OVCAR-5 ovarian, with NCI-H460 lung, with CCRF-CEM leukemia, in the experiment with UO-31 renal, in the experiment with K-562 leukemia and with SK-MEL-2 melanoma was more than 100 µM in each case. The TGI with MDA-MB-231 breast, in the experiment with MALME-3M melanoma and with MDA-MB-435 was more than 100 µM throughout.

As for `O=P(Nc1ccc(Cl)cc1)(Oc1ccccc1)N(CCCl)CCCl` (centres undefined), the TGI in the experiment with OVCAR-5 ovarian, in the experiment with HOP-62 NSCLC, in the experiment with CCRF-CEM leukemia, in the experiment with UO-31 renal, in the experiment on K-562 leukemia and with SK-MEL-2 melanoma was more than 100 µM each time. For the same compound, the TGI in the experiment on A498 renal and in the experiment on MALME-3M melanoma was more than 100 µM throughout.

Take `CC12C(=O)CC(CC1=O)C2(C)C`: the TGI in the experiment with OVCAR-5 ovarian, in the experiment with HOP-62 NSCLC, in the experiment with NCI-H460 lung, in the experiment on CCRF-CEM leukemia, in the experiment with UO-31 renal and in the experiment with K-562 leukemia was more than 100 µM each time. The TGI with SK-MEL-2 melanoma and with MALME-3M melanoma was more than 100 µM in each case.

Turning to `Oc1ccc(-c2nc(-c3cccnc3)c(-c3ccc(Cl)cc3)[nH]2)cc1`, the TGI in the experiment on OVCAR-5 ovarian was 33.5 µM; with HOP-62 NSCLC, 30.9 µM; in the experiment with NCI-H460 lung, 24 µM; in the experiment on CCRF-CEM leukemia, 17.9 µM; in the experiment on UO-31 renal, 22.9 µM; in the experiment on K-562 leukemia, more than 100 µM. The TGI with SK-MEL-2 melanoma is 32.8 µM; in the experiment on MDA-MB-231 breast, 35.1 µM; in the experiment with MALME-3M melanoma it was 26.8 µM; in the experiment with MDA-MB-435 it was 25.5 µM.

In the case of `O=C(NNC(=S)Nc1cccc(Cl)c1)c1cc(-c2ccccc2)nc2ccccc12`, the TGI is 36 µM in the experiment on OVCAR-5 ovarian; 32.1 µM in the experiment on HOP-62 NSCLC; 39.6 µM with NCI-H460 lung; 32.2 µM with CCRF-CEM leukemia; 29.8 µM in the experiment on UO-31 renal; more than 100 µM in the experiment on K-562 leukemia. Besides, the TGI came out at 27.7 µM with SK-MEL-2 melanoma, 33.2 µM with MDA-MB-231 breast, 29.9 µM with MALME-3M melanoma and 33.4 µM with MDA-MB-435.

For `CCOC(=O)CNc1c(OCc2ccccc2)c(=O)c1=O`, the TGI with OVCAR-5 ovarian, with HOP-62 NSCLC, in the experiment with CCRF-CEM leukemia, in the experiment with UO-31 renal, with K-562 leukemia and with SK-MEL-2 melanoma was more than 100 µM in each case. The TGI in the experiment on MDA-MB-231 breast, in the experiment on MALME-3M melanoma and in the experiment on MDA-MB-435 was more than 100 µM each time.

On to `c1ccc2c(c1)ccn2CCc1c[nH]c2ccccc12`, for which the TGI in the experiment with OVCAR-5 ovarian, with HOP-62 NSCLC, in the experiment with NCI-H460 lung, in the experiment with CCRF-CEM leukemia, in the experiment with UO-31 renal and in the experiment on K-562 leukemia was more than 10 µM throughout. Further, the TGI in the experiment on SK-MEL-2 melanoma, in the experiment on MDA-MB-231 breast, in the experiment on MALME-3M melanoma and in the experiment on MDA-MB-435 was more than 10 µM throughout.

Take `O=C1C=C(C2=CC(=O)C(=O)c3ccccc32)c2ccccc2C1=O`: the TGI is 44.2 µM in the experiment with OVCAR-5 ovarian; 64.6 µM with HOP-62 NSCLC; more than 100 µM with CCRF-CEM leukemia; more than 100 µM in the experiment on UO-31 renal; more than 100 µM in the experiment on K-562 leukemia; 72.3 µM in the experiment on SK-MEL-2 melanoma. The figures for the TGI with MDA-MB-231 breast, with A498 renal and in the experiment with MALME-3M melanoma were 53.3 µM, more than 100 µM and more than 100 µM, respectively.

`CN1CCC(O)(C(C)(C)C)CC1`: the TGI in the experiment on OVCAR-5 ovarian, in the experiment on HOP-62 NSCLC, in the experiment on NCI-H460 lung, in the experiment with CCRF-CEM leukemia, in the experiment on UO-31 renal and with K-562 leukemia was more than 100 µM throughout. Besides, the TGI in the experiment with SK-MEL-2 melanoma, with MDA-MB-231 breast, with MALME-3M melanoma and in the experiment with MDA-MB-435 was more than 100 µM in each case.

Turning to `NN/C(=N\S(=O)(=O)c1cc2ccccc2s1)Nc1ccc(Cl)cc1`, the TGI with OVCAR-5 ovarian was 48.2 µM; with HOP-62 NSCLC, 38.2 µM; with NCI-H460 lung, 39.6 µM; with UO-31 renal it was 32.1 µM; in the experiment on K-562 leukemia, more than 100 µM; in the experiment on SK-MEL-2 melanoma it was 34.5 µM. Besides, the results for the TGI in the experiment with MDA-MB-231 breast and in the experiment with A498 renal were 40.4 µM and 39.5 µM, respectively.

On to `CC1NC(=O)CC(c2ccccc2)N(N=O)C1c1ccccc1` (centres undefined), for which the TGI in the experiment on OVCAR-5 ovarian was more than 100 µM; with HOP-62 NSCLC it was more than 92.7 µM; in the experiment on NCI-H460 lung, more than 90.2 µM; with CCRF-CEM leukemia it was 71.6 µM; in the experiment on UO-31 renal, more than 100 µM; in the experiment on K-562 leukemia, more than 88.5 µM. Also, the TGI with SK-MEL-2 melanoma is more than 85.9 µM; with A498 renal it was 52.3 µM; in the experiment with MALME-3M melanoma, more than 100 µM.

Take `Cc1nc(-c2cc3cc([N+](=O)[O-])ccc3oc2=O)cs1`: the TGI in the experiment on OVCAR-5 ovarian, in the experiment on HOP-62 NSCLC, in the experiment on NCI-H460 lung, with CCRF-CEM leukemia, in the experiment on UO-31 renal and with K-562 leukemia was more than 100 µM each time. For the same compound, the TGI in the experiment on SK-MEL-2 melanoma, in the experiment on MDA-MB-231 breast and in the experiment with MDA-MB-435 was more than 100 µM in each case.

As to `O=C(NI1OC(=O)c2ccccc21)c1ccc(Cl)cc1`, the TGI with OVCAR-5 ovarian, in the experiment on HOP-62 NSCLC, in the experiment with NCI-H460 lung, in the experiment on CCRF-CEM leukemia, in the experiment with UO-31 renal and in the experiment with K-562 leukemia was more than 100 µM in each case. In addition, the TGI in the experiment on SK-MEL-2 melanoma, with MDA-MB-231 breast, in the experiment on A498 renal and in the experiment on MDA-MB-435 was more than 100 µM each time.

On to `O=C1/C(=N/O)Cc2c(Br)ccc(Br)c21`, for which the TGI in the experiment with OVCAR-5 ovarian is more than 100 µM; with HOP-62 NSCLC it was more than 100 µM; in the experiment with NCI-H460 lung it was more than 100 µM; in the experiment with CCRF-CEM leukemia it was more than 100 µM; in the experiment on UO-31 renal it was more than 100 µM; in the experiment with K-562 leukemia, 84.5 µM. Also, the TGI in the experiment with SK-MEL-2 melanoma is 48.4 µM; with MDA-MB-231 breast, more than 100 µM; in the experiment with A498 renal it was more than 100 µM; in the experiment with MDA-MB-435, more than 100 µM.
